Experimental data taken from patent EP3002287B1, “Thiochromeno[2,3-c]quinolin-12-one derivatives and their use as topoisomerase inhibitors” (National Defense Medical Center, priority 2014, dated 2016).

Tests used:
DU-145 = assay: MTT assay for cell cytotoxicity; format: cell-based, human; conditions: Homo sapiens, 72 h, at least three independent experiments, read-out: MTT assay (IC50 ± SD) DU-145
Description: (§1) All of synthesis compounds were evaluated cell cytotoxicity by using MTT colorimetric assay on PC-3 and DU-145 cell lines. DU-145 and PC-3 are human hormone-refractory (androgen-independent) prostatic cancer cell lines from American Type Culture Collection (HTB-81™, ATCC, Rockville, MD)^125 and Bioresource Collection and Research Center (60122, BCRC, Taiwan)^126, respectively. Two of the "classical" cell lines were cultivated in RPMI-1640 medium supplemented with 5% fetal bovine serum (v/v), 100 U/mL penicillin, and […] streptomycin. Approximately 2 x 10^3 cells were seeded into each well of a 96-well plate and incubated in 5% CO2 at 37 °C for 24 h. To evaluate the in vitro cytotoxicity, all the synthetic compounds were dissolved in DMSO, prepared immediately before the experiments and diluted into the complete medium before being added to each well of a 96-well plate. Each compound was then added to the culture medium for designated various concentrations (0.15, 0.5, 1.5, 5, 15 µM). After 72 h, an amount of 100 µL of MTT (1 mg/mL) was added to each well, and the samples were incubated at 37 °C for 4 h. After removing the MTT solution, 100 µL of DMSO was added to each well and incubated at 37 °C for another 20 mins. The absorbency at 560 nm was measured by using an ELISA reader.
(§2) Results are expressed as mean values of at least three independent experiments. The IC50 values of testing compounds were described in Table 1. Table1. Effects of 10-Chloro-12H-thiochromeno[2,3-c]quinolin -12-one derivatives on cytotoxicity by MTT assay.

PC-3 = assay: MTT assay for cell cytotoxicity; format: cell-based, human; conditions: Homo sapiens, 72 h, at least three independent experiments, read-out: MTT assay (IC50 ± SD) PC-3
Description: as §1, §2

TOP I = biological target: T1, TOP I (Homo sapiens, UniProt P11387); assay: Topoisomerase I activity assay (DNA relaxation catalyzed by TOP I); format: biochemical; conditions: primary assay at 25 and/or 50 µM
T1 construct: purchased TopoGEN TG2005H
T1 sequence (P11387 1-765): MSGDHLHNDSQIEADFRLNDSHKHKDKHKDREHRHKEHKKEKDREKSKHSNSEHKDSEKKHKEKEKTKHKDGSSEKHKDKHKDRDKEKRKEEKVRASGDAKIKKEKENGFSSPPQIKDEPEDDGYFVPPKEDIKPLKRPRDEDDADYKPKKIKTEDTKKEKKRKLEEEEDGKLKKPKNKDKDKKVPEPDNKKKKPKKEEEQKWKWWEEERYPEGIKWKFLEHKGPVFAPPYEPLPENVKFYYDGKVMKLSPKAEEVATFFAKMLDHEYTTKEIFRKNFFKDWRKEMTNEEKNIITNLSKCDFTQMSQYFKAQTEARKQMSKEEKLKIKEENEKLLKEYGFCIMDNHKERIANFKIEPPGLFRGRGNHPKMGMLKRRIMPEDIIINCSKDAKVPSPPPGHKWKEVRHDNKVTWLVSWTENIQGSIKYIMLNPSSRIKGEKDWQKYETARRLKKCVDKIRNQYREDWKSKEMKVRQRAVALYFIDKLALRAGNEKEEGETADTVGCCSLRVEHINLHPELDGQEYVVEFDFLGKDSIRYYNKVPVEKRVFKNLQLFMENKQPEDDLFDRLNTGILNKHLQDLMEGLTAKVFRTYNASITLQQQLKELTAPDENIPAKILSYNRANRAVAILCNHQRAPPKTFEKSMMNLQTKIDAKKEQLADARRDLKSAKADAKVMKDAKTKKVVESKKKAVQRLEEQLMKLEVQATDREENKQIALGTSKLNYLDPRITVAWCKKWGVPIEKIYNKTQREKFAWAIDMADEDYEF
Description: According to the cell cytotoxicity, compounds 5, 7, 8, 16, 19, N2, N7, N8, N9, N14-N19, and N25 were also selected for primary TOP I and II activities assays at 25 and/or 50 µM (Fig. 2-4).

TOP II = biological target: T2, TOP II (Homo sapiens, UniProt P11388); assay: Topoisomerase II activity assay (TOP II-catalyzed relaxation of plasmid DNA); format: biochemical; conditions: primary assay at 25 and/or 50 µM
T2 construct: purchased TopoGEN TG-2000H-1
Description: We also performed TOP 11-catalyzed relaxation of plasmid DNA assays(Fig. 5-7) to evaluate if compounds could inhibit TOP II. […] The IC50 value of compounds 7, N7, N8, N14, N15, N18, and N19 were about 10, 10, 1, 10, 5, 1, and 1 µM, respectively (detect by TopoGEN TG2005H, TG-2000H-1).

T2 sequence (P11388 whole entry): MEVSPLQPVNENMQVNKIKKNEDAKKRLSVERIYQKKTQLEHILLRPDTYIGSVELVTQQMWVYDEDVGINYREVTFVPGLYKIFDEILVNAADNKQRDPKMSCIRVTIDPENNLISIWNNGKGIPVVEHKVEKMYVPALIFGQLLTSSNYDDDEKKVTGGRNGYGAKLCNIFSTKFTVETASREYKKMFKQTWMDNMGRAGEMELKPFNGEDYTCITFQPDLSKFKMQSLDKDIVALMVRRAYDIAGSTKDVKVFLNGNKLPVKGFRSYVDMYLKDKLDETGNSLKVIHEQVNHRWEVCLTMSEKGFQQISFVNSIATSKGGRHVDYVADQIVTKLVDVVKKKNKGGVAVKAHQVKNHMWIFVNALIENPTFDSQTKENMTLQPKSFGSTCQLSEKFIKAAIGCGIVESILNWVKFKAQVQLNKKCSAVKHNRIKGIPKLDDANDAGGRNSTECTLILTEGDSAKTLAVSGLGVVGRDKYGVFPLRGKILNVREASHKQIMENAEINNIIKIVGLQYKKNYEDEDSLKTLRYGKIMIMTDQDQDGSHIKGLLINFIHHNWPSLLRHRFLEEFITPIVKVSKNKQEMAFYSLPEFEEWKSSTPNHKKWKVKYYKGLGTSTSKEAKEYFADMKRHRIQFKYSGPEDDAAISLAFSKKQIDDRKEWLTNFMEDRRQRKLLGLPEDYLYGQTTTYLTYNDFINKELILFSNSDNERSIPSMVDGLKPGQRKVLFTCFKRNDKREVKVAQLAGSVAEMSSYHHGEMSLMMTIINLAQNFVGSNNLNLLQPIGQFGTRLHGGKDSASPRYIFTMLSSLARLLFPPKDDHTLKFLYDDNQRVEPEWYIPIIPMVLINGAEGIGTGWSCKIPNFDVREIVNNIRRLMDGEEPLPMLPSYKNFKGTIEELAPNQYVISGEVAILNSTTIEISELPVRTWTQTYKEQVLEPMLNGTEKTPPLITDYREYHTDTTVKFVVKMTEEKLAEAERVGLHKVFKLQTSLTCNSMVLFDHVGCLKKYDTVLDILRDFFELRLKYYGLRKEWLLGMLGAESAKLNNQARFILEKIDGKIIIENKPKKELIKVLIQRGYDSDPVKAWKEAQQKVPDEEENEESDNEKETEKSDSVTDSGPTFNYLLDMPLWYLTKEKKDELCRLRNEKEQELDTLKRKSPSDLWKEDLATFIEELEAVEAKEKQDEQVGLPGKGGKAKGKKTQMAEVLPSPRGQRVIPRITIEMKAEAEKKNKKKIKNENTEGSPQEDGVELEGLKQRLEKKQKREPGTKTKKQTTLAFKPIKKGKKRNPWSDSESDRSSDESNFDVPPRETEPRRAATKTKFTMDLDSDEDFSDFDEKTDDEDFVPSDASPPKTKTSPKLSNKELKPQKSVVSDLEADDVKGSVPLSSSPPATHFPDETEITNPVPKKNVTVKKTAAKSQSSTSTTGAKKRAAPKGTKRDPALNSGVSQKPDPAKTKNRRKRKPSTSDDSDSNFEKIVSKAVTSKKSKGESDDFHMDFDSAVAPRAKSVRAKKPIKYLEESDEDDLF

Row | SMILES | IC50 (DU-145) [µM] | IC50 (PC-3) [µM] | inhibitory effects in TOP I activity assay compared with CPT (TOP I) | inhibitory effects on TOP II compared with the positive agent VP-16 (TOP II)
1 | CN(C)CCNc1nc2ccccc2c2c(=O)c3cc(Cl)ccc3sc12 [Compound N7, 10-Chloro-6-((2-(dimethylamino)ethyl)amino)-12H-thiochrome no[2,3-c]quinolin-12-one] | 5.94 ± 3.45 | 2.25 ± 0.61 | more potent inhibitory effects than CPT | more potent inhibitory effects than the positive agent VP-16
2 | CCN(CC)CCNc1nc2ccccc2c2c(=O)c3cc(Cl)ccc3sc12 [Compound N8, 10-Chloro-6-((2-(diethylamino)ethyl)amino)-12H-thiochromen o[2,3-c]quinolin-12-one] | 1.73 ± 0.72 | 1.11 ± 0.69 |  | more potent inhibitory effects than the positive agent VP-16
3 | NCCNc1nc2ccccc2c2c(=O)c3cc(Cl)ccc3sc12 [Compound N14, 6-((2-Aminoethyl)amino)-10-chloro-12H-thiochromeno[2,3-c]q uinolin-12-one] | 1.8 ± 0.4 | 1.64 ± 0.55 | more potent inhibitory effects than CPT | more potent inhibitory effects than the positive agent VP-16
4 | O=c1c2cc(Cl)ccc2sc2c(NCCNCCO)nc3ccccc3c12 [Compound N15, 10-Chloro-6-((2-((2-hydroxyethyl)amino)ethyl)amino)-12H-thio chromen[2,3-c]quinolin-12-one] | 3.81 ± 1.88 | 3.44 ± 1.81 | more potent inhibitory effects than CPT | more potent inhibitory effects than the positive agent VP-16
5 | CN(C)CCCNc1nc2ccccc2c2c(=O)c3cc(Cl)ccc3sc12 [Compound N17, 10-Chloro-6-((3-(dimethylamino)propyl)amino)-12H-thiochrom eno[2,3-c]quinolin-12-one] | 2.7 ± 0.16 | 2.27 ± 0.09 | more potent inhibitory effects than CPT | 
6 | O=c1c2cc(Cl)ccc2sc2c(NCCCNCCO)nc3ccccc3c12 [Compound N19, 10-Chloro-6-((3-((2-hydroxyethyl)amino)propyl)amino)-12H-th iochromeno[2,3-c]quinolin-12-one] | 1.5 ± 1.32 | 1.98 ± 0.72 |  | more potent inhibitory effects than the positive agent VP-16
7 | COc1ccc(CCNc2nc3ccccc3c3c(=O)c4cc(Cl)ccc4sc23)cc1 [Compound N31, 10-Chloro-6-((4-methoxyphenethyl)amino)-12H-thiochromeno[2,3-c]quinolin-12-one] | > 15 | > 15 |  | 
8 | O=c1c2cc(Cl)ccc2sc2c(NC3Cc4ccccc4C3)nc3ccccc3c12 [Compound N20, 10-Chloro-6-((2,3-dihydro-1H-inden-2-yl)amino)-12H-thiochro meno[2,3-c]quinolin-12-one] | 4.86 ± 0.99 | 6.2 ± 2.52 |  | 
9 | O=c1c2cc(Cl)ccc2sc2c(NCc3ccccc3)nc3ccccc3c12 [Compound N25, 6-(Benzylamino)-10-chloro-12H-thiochromeno[2,3-c]quinolin-12-tone] | 13.5 ± 0.69 | 11.2 ± 1.55 | more potent inhibitory effects than CPT | 
10 | NC(N)=Nc1nc2ccccc2c2c(=O)c3cc(Cl)ccc3sc12 [Compound N33, 2-(10-Chloro-12-oxo-12H-thiochromeno[2,3-c]quinolin-6-yl)gu anidine] | 8.11 ± 1.37 | 6.13 ± 6.98 |  | 
11 | CNc1nc2ccccc2c2c(=O)c3cc(Cl)ccc3sc12 [Compound N1, 10-Chloro-6-methylamino-12H-thiochromeno[2,3-c]quinolin-12-one] | 11.7 ± 5.15 | 14.5 ± 2.7 |  | 
